In the NIST ThermoML archive (doi:10.1016/j.tca.2006.04.001):
Numbers after ± are expanded uncertainties.

Settings: Liquid, Pycnometric method

CCCCCCCCCCCCCCCCCCC [nonadecane]
Settings	specific volume [m3/kg]
305.45 K	0.0013 ± 1.9e-05
307.55 K	0.001303 ± 2e-05
309.55 K	0.001304 ± 2e-05
311.65 K	0.001304 ± 2e-05
313.65 K	0.001307 ± 2e-05
315.75 K	0.001309 ± 2e-05
317.75 K	0.001311 ± 2e-05
319.85 K	0.001313 ± 2e-05
321.95 K	0.001316 ± 2e-05
323.95 K	0.001319 ± 2e-05
326.05 K	0.001322 ± 2e-05
328.05 K	0.001321 ± 2e-05
330.15 K	0.001324 ± 2e-05
332.25 K	0.001327 ± 2e-05
334.25 K	0.001329 ± 2e-05
336.35 K	0.001331 ± 2e-05
338.35 K	0.001335 ± 2e-05
340.45 K	0.001337 ± 2e-05
342.55 K	0.001339 ± 2e-05
344.55 K	0.001338 ± 2e-05
346.65 K	0.001344 ± 2e-05
348.65 K	0.001345 ± 2e-05
350.75 K	0.001346 ± 2e-05
352.85 K	0.001348 ± 2e-05
354.85 K	0.001353 ± 2e-05
356.95 K	0.001355 ± 2e-05
358.95 K	0.001357 ± 2e-05
361.05 K	0.001359 ± 2e-05
363.15 K	0.001362 ± 2.1e-05
365.15 K	0.001365 ± 2.1e-05
367.25 K	0.001368 ± 2.1e-05
369.25 K	0.00137 ± 2.1e-05
371.35 K	0.001373 ± 2.1e-05
373.45 K	0.001374 ± 2.1e-05
375.45 K	0.001376 ± 2.1e-05
377.55 K	0.001379 ± 2.1e-05
379.55 K	0.001382 ± 2.1e-05
381.65 K	0.001385 ± 2.1e-05
383.75 K	0.001389 ± 2.1e-05
385.75 K	0.001391 ± 2.1e-05
387.85 K	0.001394 ± 2.1e-05
389.85 K	0.001396 ± 2.1e-05
391.95 K	0.001401 ± 2.1e-05
393.95 K	0.001404 ± 2.1e-05
396.05 K	0.001405 ± 2.1e-05
398.15 K	0.001405 ± 2.1e-05
400.15 K	0.00141 ± 2.1e-05
402.25 K	0.001412 ± 2.1e-05
404.25 K	0.001415 ± 2.1e-05
406.35 K	0.001418 ± 2.1e-05
408.45 K	0.001422 ± 2.1e-05
410.45 K	0.001426 ± 2.1e-05
412.55 K	0.001429 ± 2.2e-05
414.55 K	0.001434 ± 2.2e-05
416.65 K	0.001436 ± 2.2e-05
418.75 K	0.001439 ± 2.2e-05
420.75 K	0.001439 ± 2.2e-05
422.85 K	0.001442 ± 2.2e-05
424.85 K	0.001447 ± 2.2e-05
426.95 K	0.00145 ± 2.2e-05
429.05 K	0.001452 ± 2.2e-05
431.05 K	0.001456 ± 2.2e-05
433.15 K	0.001457 ± 2.2e-05
435.15 K	0.001461 ± 2.2e-05
437.25 K	0.001464 ± 2.2e-05
439.35 K	0.001466 ± 2.2e-05
441.35 K	0.001469 ± 2.2e-05
443.45 K	0.001475 ± 2.2e-05
445.45 K	0.001479 ± 2.2e-05
447.55 K	0.001481 ± 2.2e-05
449.65 K	0.001485 ± 2.2e-05
451.65 K	0.001485 ± 2.2e-05
453.75 K	0.001492 ± 2.3e-05
455.75 K	0.001495 ± 2.3e-05
457.85 K	0.001498 ± 2.3e-05
459.95 K	0.001504 ± 2.3e-05
461.95 K	0.001506 ± 2.3e-05
464.05 K	0.001508 ± 2.3e-05
466.05 K	0.001514 ± 2.3e-05
468.15 K	0.001514 ± 2.3e-05
470.25 K	0.00152 ± 2.3e-05
472.25 K	0.001523 ± 2.3e-05
474.35 K	0.001527 ± 2.3e-05
476.35 K	0.00153 ± 2.3e-05
478.45 K	0.001533 ± 2.3e-05
480.45 K	0.001536 ± 2.3e-05
482.55 K	0.001543 ± 2.3e-05
484.65 K	0.001546 ± 2.3e-05
486.65 K	0.001549 ± 2.3e-05
488.75 K	0.001549 ± 2.3e-05
490.75 K	0.001557 ± 2.3e-05
492.85 K	0.00156 ± 2.3e-05
494.95 K	0.001563 ± 2.3e-05
496.95 K	0.001566 ± 2.4e-05
499.05 K	0.001569 ± 2.4e-05
501.05 K	0.001575 ± 2.4e-05
503.15 K	0.001578 ± 2.4e-05
505.25 K	0.001582 ± 2.4e-05
507.25 K	0.001586 ± 2.4e-05
509.35 K	0.001592 ± 2.4e-05
511.35 K	0.001594 ± 2.4e-05
513.45 K	0.001599 ± 2.4e-05
515.55 K	0.001604 ± 2.4e-05
517.55 K	0.001609 ± 2.4e-05
519.65 K	0.001609 ± 2.4e-05
521.65 K	0.001615 ± 2.4e-05
523.75 K	0.00162 ± 2.4e-05
525.85 K	0.001625 ± 2.4e-05
531.35 K	0.001634 ± 2.5e-05
533.25 K	0.001639 ± 2.5e-05
535.25 K	0.001641 ± 2.5e-05
537.15 K	0.001646 ± 2.5e-05
539.15 K	0.001649 ± 2.5e-05
541.05 K	0.001653 ± 2.5e-05
543.05 K	0.001659 ± 2.5e-05
544.95 K	0.001663 ± 2.5e-05
546.85 K	0.001667 ± 2.5e-05
548.85 K	0.00167 ± 2.5e-05
550.75 K	0.001676 ± 2.5e-05
552.75 K	0.00168 ± 2.5e-05
554.65 K	0.001683 ± 2.5e-05
556.65 K	0.001687 ± 2.5e-05
558.55 K	0.001692 ± 2.5e-05
560.45 K	0.001697 ± 2.6e-05
562.45 K	0.001702 ± 2.6e-05
564.35 K	0.001707 ± 2.6e-05
566.35 K	0.001711 ± 2.6e-05
568.25 K	0.001717 ± 2.6e-05
570.25 K	0.001722 ± 2.6e-05
572.15 K	0.001725 ± 2.6e-05
574.05 K	0.001732 ± 2.6e-05
576.05 K	0.001737 ± 2.6e-05
